Data as given in publication PMC7576618 (British Journal of Clinical Pharmacology, 2020).

What was measured:
healthy subjects [1] = test: MAD study: safety and tolerability; assay type: in vivo, human
[2] = monkeys; cited from earlier work
healthy subjects [3] = test: SAD study: safety and tolerability; assay type: in vivo, human; conditions: SAD Part B
[4] = MAD Cohort 1, 5–10 mg fed (n = 8)
[5] = MAD Cohort 2, 5–20 mg fed (n = 8)
[6] = MAD Cohort 3, 5–40 mg fed (n = 8)
[7] = MAD Cohort 4, 5–60 mg fed (n = 8)
[8] = MAD Cohort 5, 10–80 mg fed (n = 8)
[9] = MAD Cohort 6, 10–80 mg fed (n = 7)
[10] = MAD, 80 mg MP in Cohort 5, data not shown

CC(C)[C@@H]1CC[C@@H](C)C[C@H]1OC(=O)O[C@@H](C)OC(=O)[C@H]1[C@@H]2C[C@H](F)[C@@](N)(C(=O)O)[C@@H]21.O=S(=O)(O)c1ccccc1 [TS‐134, (1S,2S,3S,5R,6S)‐2‐amino‐3‐ fluoro‐6‐({(1S)‐1‐[({[(1R,2S,5R)‐5‐methyl‐2‐(propan‐2‐yl)cyclohexyl]oxy}carbonyl)oxy]ethoxy}carbonyl)bicyclo[3.1.0]hexane‐2‐carboxylic acid monobenzenesulfonate]
dose up to which multiple dose titration was tolerated (healthy subjects [1]; 14‐day MAD, titration schemes under fed conditions): up to 80 mg | Abnormal dreams (healthy subjects [1]; [4]): 0 Number of subjects (%) | Dizziness (healthy subjects [1]; [4]): 0 Number of subjects (%) | Headache (healthy subjects [1]; [4]): 1 (12.5) Number of subjects (%) | Insomnia (healthy subjects [1]; [4]): 0 Number of subjects (%) | Nausea (healthy subjects [1]; [4]): 2 (25.0) Number of subjects (%) | Number of subjects with at least 1 TEAE (healthy subjects [1]; [4]): 5 (62.5) Number of subjects (%) | Post lumbar puncture syndrome (healthy subjects [1]; [4]): 0 Number of subjects (%) | Pruritus (healthy subjects [1]; [4]): 0 Number of subjects (%) | Somnolence (healthy subjects [1]; [4]): 3 (37.5) Number of subjects (%) | Total number of TEAEs (healthy subjects [1]; [4]): 11 | Vomiting (healthy subjects [1]; [4]): 0 Number of subjects (%) | Abnormal dreams (healthy subjects [1]; [5]): 0 Number of subjects (%) | Dizziness (healthy subjects [1]; [5]): 1 (12.5) Number of subjects (%) | Headache (healthy subjects [1]; [5]): 3 (37.5) Number of subjects (%) | Insomnia (healthy subjects [1]; [5]): 0 Number of subjects (%) | Nausea (healthy subjects [1]; [5]): 3 (37.5) Number of subjects (%) | Number of subjects with at least 1 TEAE (healthy subjects [1]; [5]): 5 (62.5) Number of subjects (%) | Post lumbar puncture syndrome (healthy subjects [1]; [5]): 0 Number of subjects (%) | Pruritus (healthy subjects [1]; [5]): 0 Number of subjects (%) | Somnolence (healthy subjects [1]; [5]): 1 (12.5) Number of subjects (%) | Total number of TEAEs (healthy subjects [1]; [5]): 17 | Vomiting (healthy subjects [1]; [5]): 0 Number of subjects (%) | Abnormal dreams (healthy subjects [1]; [6]): 0 Number of subjects (%) | Dizziness (healthy subjects [1]; [6]): 3 (37.5) Number of subjects (%) | Headache (healthy subjects [1]; [6]): 3 (37.5) Number of subjects (%) | Insomnia (healthy subjects [1]; [6]): 0 Number of subjects (%) | Nausea (healthy subjects [1]; [6]): 2 (25.0) Number of subjects (%) | Number of subjects with at least 1 TEAE (healthy subjects [1]; [6]): 5 (62.5) Number of subjects (%) | Post lumbar puncture syndrome (healthy subjects [1]; [6]): 0 Number of subjects (%) | Pruritus (healthy subjects [1]; [6]): 0 Number of subjects (%) | Somnolence (healthy subjects [1]; [6]): 1 (12.5) Number of subjects (%) | Total number of TEAEs (healthy subjects [1]; [6]): 16 | Vomiting (healthy subjects [1]; [6]): 1 (12.5) Number of subjects (%) | Abnormal dreams (healthy subjects [1]; [7]): 2 (25.0) Number of subjects (%) | Dizziness (healthy subjects [1]; [7]): 1 (12.5) Number of subjects (%) | Headache (healthy subjects [1]; [7]): 5 (62.5) Number of subjects (%) | Insomnia (healthy subjects [1]; [7]): 3 (37.5) Number of subjects (%) | Nausea (healthy subjects [1]; [7]): 3 (37.5) Number of subjects (%) | Number of subjects with at least 1 TEAE (healthy subjects [1]; [7]): 8 (100) Number of subjects (%) | Post lumbar puncture syndrome (healthy subjects [1]; [7]): 0 Number of subjects (%) | Pruritus (healthy subjects [1]; [7]): 1 (12.5) Number of subjects (%) | Somnolence (healthy subjects [1]; [7]): 1 (12.5) Number of subjects (%) | Total number of TEAEs (healthy subjects [1]; [7]): 26 | Vomiting (healthy subjects [1]; [7]): 2 (25.0) Number of subjects (%) | Abnormal dreams (healthy subjects [1]; [8]): 0 Number of subjects (%) | Dizziness (healthy subjects [1]; [8]): 0 Number of subjects (%) | Headache (healthy subjects [1]; [8]): 3 (37.5) Number of subjects (%) | Insomnia (healthy subjects [1]; [8]): 0 Number of subjects (%) | Nausea (healthy subjects [1]; [8]): 3 (37.5) Number of subjects (%) | Number of subjects with at least 1 TEAE (healthy subjects [1]; [8]): 7 (87.5) Number of subjects (%) | Post lumbar puncture syndrome (healthy subjects [1]; [8]): 0 Number of subjects (%) | Pruritus (healthy subjects [1]; [8]): 0 Number of subjects (%) | Somnolence (healthy subjects [1]; [8]): 1 (12.5) Number of subjects (%) | Total number of TEAEs (healthy subjects [1]; [8]): 30 | Vomiting (healthy subjects [1]; [8]): 0 Number of subjects (%) | Abnormal dreams (healthy subjects [1]; [9]): 0 Number of subjects (%) | Dizziness (healthy subjects [1]; [9]): 3 (42.9) Number of subjects (%) | Headache (healthy subjects [1]; [9]): 1 (14.3) Number of subjects (%) | Insomnia (healthy subjects [1]; [9]): 1 (14.3) Number of subjects (%) | Nausea (healthy subjects [1]; [9]): 2 (28.6) Number of subjects (%) | Number of subjects with at least 1 TEAE (healthy subjects [1]; [9]): 6 (85.7) Number of subjects (%) | Post lumbar puncture syndrome (healthy subjects [1]; [9]): 0 Number of subjects (%) | Pruritus (healthy subjects [1]; [9]): 3 (42.9) Number of subjects (%) | Somnolence (healthy subjects [1]; [9]): 2 (28.6) Number of subjects (%) | Total number of TEAEs (healthy subjects [1]; [9]): 25 | Vomiting (healthy subjects [1]; [9]): 0 Number of subjects (%) | Abnormal dreams (healthy subjects [1]; MAD Total TS‐134 (n = 47)): 2 (4.3) Number of subjects (%) | Dizziness (healthy subjects [1]; MAD Total TS‐134 (n = 47)): 8 (17.0) Number of subjects (%) | Headache (healthy subjects [1]; MAD Total TS‐134 (n = 47)): 16 (34.0) Number of subjects (%) | Insomnia (healthy subjects [1]; MAD Total TS‐134 (n = 47)): 4 (8.5) Number of subjects (%) | Nausea (healthy subjects [1]; MAD Total TS‐134 (n = 47)): 15 (31.9) Number of subjects (%) | Number of subjects with at least 1 TEAE (healthy subjects [1]; MAD Total TS‐134 (n = 47)): 36(76.6) Number of subjects (%) | Post lumbar puncture syndrome (healthy subjects [1]; MAD Total TS‐134 (n = 47)): 0 Number of subjects (%) | Pruritus (healthy subjects [1]; MAD Total TS‐134 (n = 47)): 4 (8.5) Number of subjects (%) | Somnolence (healthy subjects [1]; MAD Total TS‐134 (n = 47)): 9 (19.1) Number of subjects (%) | Total number of TEAEs (healthy subjects [1]; MAD Total TS‐134 (n = 47)): 125 | Vomiting (healthy subjects [1]; MAD Total TS‐134 (n = 47)): 3 (6.4) Number of subjects (%) | discontinuations due to TEAEs (healthy subjects [1]; MAD study): no discontinuations due to TEAEs | reports of severe anxiety (healthy subjects [1]; [10]): 1 report | reports of severe fatigue (healthy subjects [1]; [10]): 1 report | incidence of dizziness (healthy subjects [1]; MAD, total TS‐134 group): 17.0% | incidence of headache (healthy subjects [1]; MAD, total TS‐134 group): 34.0% | incidence of nausea (healthy subjects [1]; MAD, total TS‐134 group): 31.9% | incidence of somnolence (healthy subjects [1]; MAD, total TS‐134 group): 19.1% | incidence of vomiting (healthy subjects [1]; MAD, total TS‐134 group): 6.4% | conversion of the prodrug into MGS0008 after oral administration [2]: rapidly converted into MGS0008 | incidence of headache (healthy subjects [3]; fed 10 mg TS‐134): 25.0% | incidence of post lumbar puncture syndrome (healthy subjects [3]; fed 10 mg TS‐134): 37.5% | incidence of somnolence (healthy subjects [3]; fed 10 mg TS‐134): 25.0% | incidence of vomiting (healthy subjects [3]; fed 10 mg TS‐134): 25.0% | Abnormal dreams (healthy subjects [3]; 10 mg fed (n = 8)): 0 Number of subjects (%) | Dizziness (healthy subjects [3]; 10 mg fed (n = 8)): 0 Number of subjects (%)
